From patent EP0377457A1, “Thiazole compounds, processes for the preparation thereof, and pharmaceutical composition comprising the same” (FUJISAWA PHARMACEUTICAL CO., LTD., priority 1989, dated 1990)
Where a name gives a salt, the structure may show the parent alone. Read-outs that look alike come from different tables or passages of the source. Values belong to the molecule of their own block, whether it stands above or below them.

Columns and labels:
rats = experiment: Acute toxicity; format: in vivo; settings: peroral administration, 100 mg/kg
stomachs of the rats = experiment: Effect on stomach of rats; format: in vivo; settings: 100 mg/kg orally, rats treated as in the antiinflammatory test
cyclooxygenase = molecular target: T1, cyclooxygenase (Ovis aries, UniProt P05979); experiment: Assay for cyclooxygenase inhibition; format: biochemical, sheep
T1 construct: 240 µg of the microsomal enzyme; tissue Ran Biochem (Israel); host or cells: sheep seminal vesicles, microsomal fraction
T1 sequence (P05979 25-600): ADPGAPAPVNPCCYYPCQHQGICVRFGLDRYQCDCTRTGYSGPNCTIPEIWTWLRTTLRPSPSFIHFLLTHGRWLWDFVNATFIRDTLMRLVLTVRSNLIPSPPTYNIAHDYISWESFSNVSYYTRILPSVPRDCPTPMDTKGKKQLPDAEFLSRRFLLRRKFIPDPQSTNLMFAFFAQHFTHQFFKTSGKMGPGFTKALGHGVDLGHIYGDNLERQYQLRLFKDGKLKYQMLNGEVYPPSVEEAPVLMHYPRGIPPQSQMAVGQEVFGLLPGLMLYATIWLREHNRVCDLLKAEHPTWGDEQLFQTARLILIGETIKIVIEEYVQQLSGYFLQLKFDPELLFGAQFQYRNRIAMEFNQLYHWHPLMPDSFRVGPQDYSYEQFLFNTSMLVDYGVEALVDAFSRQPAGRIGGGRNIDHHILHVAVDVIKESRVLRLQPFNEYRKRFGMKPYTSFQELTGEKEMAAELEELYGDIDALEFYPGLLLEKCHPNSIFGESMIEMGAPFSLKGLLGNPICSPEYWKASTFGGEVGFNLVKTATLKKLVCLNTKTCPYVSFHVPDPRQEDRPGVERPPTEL
Protocol: The microsomal fraction from sheep seminals vesicles was purchased from Ran Biochem (Israel). The reaction mixture consisted of 0.1 M Tris-HCI, pH 7.6, 1 mM epinephrine, 2 mM glutathione, 240 µg of the microsomal enzyme, in a total volume of 200 µl. The reaction was started by the addition of 10 µM (^14C) arachidonic acid (120 nM), and incubated at 37° C for 5 min. The reaction was stopped by the addition of 50 µl of 1 N HCI. The synthesized prostaglandins were extracted with 1.5 ml of ethylacetate. The ethyl acetate layer was dried with nitrogen gas, and dissolved in 100 µl of methanol. Ten microliters of the methanol solution were applied to a thin-layer plate (Merck, Kiesegel 60F), and developed with ethylacetate : acetate (100:2). The PGE2 fraction was scraped out, and the radioactivity was counted with 10 ml of toluene scintilator.
The activity of the test compound was expressed as IC50 value i.e. doses required to inhibit the activity of cyclooxygenase by 50%.

[1] = tested on: SRS-A synthesis or release from peritoneal exudate cells; experiment: Anti-SRS-A activity; format: cell-based, SD rats; settings: rat peritoneal exudate cells; Ca++-ionophore 1 µg/ml; SRS-A read on isolated guinea pig ileum; read-out: Inhibitory Concentration IC50
Protocol: Peritoneal exudate cells were collected from glycogen-injected SD rats and adjusted to 1 x 10^7 cells/ml with Tyrode's solution. One milliliter of the cell suspension was incubated with indomethacin (10 µg/ml) and each varied concentration of the test compound for 10 minutes and, then, further incubated with Ca^++ - ionophore (A123187, 1 µg/ml) for 10 minutes. The supernatant was collected by centrifugation and the SRS-A (slow-reacting substance of anaphylaxis) activity was determined in terms of contractility of the isolated guinea pig ileum in the presence of mepyramine, atropine and methysergide.
The results were expressed in terms of the 50% inhibitory concentration to SRS-A synthesis or release from peritoneal exudate cells.

platelet aggregation [2] = experiment: Platelet aggregation ex vivo (arachidonic acid-induced, PRP after oral administration); format: in vivo, guinea-pigs; settings: Cavia porcellus, 6 h, dose 1.0 mg/kg oral, blood collected six hours after administration, arachidonic acid final 50 µM as inducer
Protocol: Male Hartley guinea-pigs weighing about 300 g were used after 24 hours fasting. Six hours after oral administration of the test compound or vehicle of test compound (control), blood was collected into a tube containing 0.1 vol. of 3.8% sodium citrate and prepared platelet rich plasma (PRP).
To the 250 µl of PRP, 5 µl of arachidonic acid (final 50 µM) was added as an aggregation inducer. Aggregation was measured by using an aggregometer (NKK HEMA-TRACER 1).

Paw edema = experiment: Antiinflammatory activity (carrageenin paw edema); format: in vivo, Sprague-Dawly rats; settings: 100 mg/kg orally 60 minutes before carrageenin; edema volume at 3 hours
Protocol: Five male Sprague-Dawly rats weighing 160-180 g were used per group. Paw edema was induced by subplantar injection of 1 % carrageenin (0.1 ml/rat) into the right hind paw. The test drug was suspended in 0.5% methylcellulose and administered orally 60 minutes before phlogogen. Paw volume was measured with plethysmometer (Ugo Bazil Co., Ltd.) by water displacement immersing the paw to the lateral malleolus. The difference of paw volume before and 3 hours after the phlogogen was designated as edema volume. The data were analyzed statistically by student's t-test.

isolated rat aorta = experiment: Relaxation effect on isolated rat aorta
Protocol: Contraction was induced by addition of KCt solution (final concentration was 30 mM).

Half-life period = settings: rat, in vivo; rats, intravenous administration (0.32 mg/kg), (,B-phase)
human washed platelets = experiment: Thrombin induced aggregation in human washed platelets; format: cell-based; settings: Platelet, concentration 1.0 x 10^-5 M, thrombin final conc. 0.3-0.5 U/ml
Protocol: Blood was drawn from healthy volunteers into a plastic tube containing 1/10 volume of 3.8% sodium citrate and centrifuged at 120 g for 10 min to obtain platelet rich plasma (PRP). An equal volume of 25 mM Tris-HCI buffer (pH 7.4) containing 130 mM NaCl and 1.5 mM EDTA (buffer A) was added to the PRP, mixed and centrifuged at 1500 g for 10 min. The platelet pellet was suspended in buffer A and centrifuged at 1500 g for 5 min. The platelets were resuspended in 25 mM Tris-HCI buffer (pH 7.4) containing 130 mM NaCl and 0.3 mM EDTA and recentrifuged at 1500 g for 5 min. The platelets were finally suspended in Tyrode solution containing 0.3 % bovine serum albumin and the platelet count was adjusted to 3 x 10^8/ml. To 247.5 µl of platelet suspension, 2.5 µl of drug solution was added and incubated for 2 min at 37° C prior to addition of thrombin solution (final conc. 0.3-0.5 U/ml). Platelet aggregation was turbidometrically measured using a HEMATRACER 1.

platelet aggregation [3] = experiment: Platelet aggregation in vitro (collagen-induced, human PRP); format: cell-based; settings: collagen (0.5 µg/ml) as inducer
Protocol: (§1) Platelet rich plasma (PRP) which contains 6 - 7 x 10^8 platelets/ml and 3 x 10^8 platelets/ml was prepared from guinea-pig and human blood, respectively. To the each 245 µℓ of PRP, 5 µℓ of drug solution^* was added, and then stirred for 2 min at 37° C. To the solution, […] of collagen (0.5 µg/mℓ) was added as an aggregation inducer. Aggregation was measured by using an aggregometer (NKK HEMA-TRACER 1). Activities of inhibitors (test compounds) were expressed as IC50 values i.e. doses required to inhibit the platelet aggregation responses by 50%.
(§2) Drug solution^* --- Test compounds were dissolved in a mixture of ethanol, polyethylene glycol and saline (1:1:2, V/V/V) and dimethylsulfoxide for guinea-pig and human blood, respectively.

platelet aggregation [4] = experiment: Platelet aggregation in vitro (collagen-induced, guinea-pig PRP); format: cell-based; settings: Cavia porcellus, collagen (0.5 µg/ml) as inducer
Protocol: as §1, §2

[5] = contraction induced by KCl 30 mM, maximum relaxation by papaverine, read-out: ED50 (the source's name)

SMILES: COc1ccc(-c2nc(C(=O)N3CCN(C)CC3)sc2-c2ccc(OC)cc2)cc1.Cl [Example 1, 4,5-bis(4-methoxyphenyl)-2-(4-methylpiperazin-1-yl)carbonylthiazole hydrochloride]
acute toxicity (dead) (rats): the dead at dose of 100 mg/kg could not be observed | lesion in the stomachs (stomachs of the rats): No lesion was observed | IC50 (cyclooxygenase): 0.43 µM | IC50 [1]: 6.28 µg/mL | inhibition at 1 mg/kg (platelet aggregation [2]): 100% | Inhibition (%) (Dose : 100 mg/kg) (Paw edema): 36.2% | EC50 (isolated rat aorta; read-out: ED50 (M)): 6.2e-06 M | half-life (Half-life period): 4.51 h

EC50 (isolated rat aorta; [5]): 3e-06 M
SMILES: COc1ccc(-c2nc(C(=O)N(C)C)sc2-c2ccc(OC)cc2)cc1 [Example 3, 4,5-bis(4-methoxyphenyl)-2-(N,N-dimethylcarbamoyl) thiazole]

SMILES: COc1ccc(-c2nc(CNC(=N)N)sc2-c2ccc(OC)cc2)cc1 [Example 12, 4,5-bis(4-methoxyphenyl)-2-guanidinomethylthiazole hydrochloride]
inhibition at 10 µM (human washed platelets): 100%

SMILES: COc1ccc(-c2nc(NC(=N)N(C)C)sc2-c2ccc(OC)cc2)cc1 [Example 14, 4,5-bis(4-methoxyphenyl)-2-(3,3-dimethylguanidino)thiazole hydrochloride]
EC50 (isolated rat aorta; [5]): 4.8e-06 M | IC50 (platelet aggregation [3]): 0.56 µM | IC50 (platelet aggregation [4]): 0.042 µM

EC50 (isolated rat aorta; [5]): 2.4e-06 M
SMILES: CN=C(NC)Nc1nc(-c2ccc(OC)cc2)c(-c2ccc(OC)cc2)s1 [Example 21, 4,5-Bis(4-methoxyphenyl)-2-(2,3-dimethylguanidino)thiazole methanesulfonate]
